Measured values from ChEMBL document CHEMBL5120879, “Medicinal Chemistry Strategies for the Development of Bruton's Tyrosine Kinase Inhibitors against Resistance” (J Med Chem, 2022).
Each block holds one molecule with its values, some of them ahead of it.

Assays:
[1] = Inhibition of BTK C481Y mutant (unknown origin); parameters: species or system Homo sapiens
[2] = molecular target: Protein cereblon/Tyrosine-protein kinase BTK (Homo sapiens, UniProt Q06187+Q96SW2); assay: PROTAC activity at CRBN/BTK (unknown origin) assessed as BTK degradation; assay type: protein assay
Sequence of Protein cereblon/Tyrosine-protein kinase BTK (Q06187 whole entry): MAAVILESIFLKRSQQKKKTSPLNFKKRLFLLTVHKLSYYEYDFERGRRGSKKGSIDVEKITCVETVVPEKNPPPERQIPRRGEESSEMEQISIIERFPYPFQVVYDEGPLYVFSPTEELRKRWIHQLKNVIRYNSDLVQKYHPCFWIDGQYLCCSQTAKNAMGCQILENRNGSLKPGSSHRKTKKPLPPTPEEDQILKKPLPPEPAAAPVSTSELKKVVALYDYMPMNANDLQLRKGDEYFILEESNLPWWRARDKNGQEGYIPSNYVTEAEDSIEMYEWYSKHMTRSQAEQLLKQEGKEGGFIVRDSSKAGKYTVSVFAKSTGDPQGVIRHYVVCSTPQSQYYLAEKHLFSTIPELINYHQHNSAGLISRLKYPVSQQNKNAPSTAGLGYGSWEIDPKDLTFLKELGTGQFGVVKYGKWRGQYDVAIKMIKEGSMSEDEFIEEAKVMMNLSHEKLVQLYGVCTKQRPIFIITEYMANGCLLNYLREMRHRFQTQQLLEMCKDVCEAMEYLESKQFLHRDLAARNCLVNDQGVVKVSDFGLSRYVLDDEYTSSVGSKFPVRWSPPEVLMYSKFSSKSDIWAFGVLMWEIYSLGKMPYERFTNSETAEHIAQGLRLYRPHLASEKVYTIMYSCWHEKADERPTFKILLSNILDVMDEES
Sequence of Protein cereblon/Tyrosine-protein kinase BTK (Q96SW2 whole entry): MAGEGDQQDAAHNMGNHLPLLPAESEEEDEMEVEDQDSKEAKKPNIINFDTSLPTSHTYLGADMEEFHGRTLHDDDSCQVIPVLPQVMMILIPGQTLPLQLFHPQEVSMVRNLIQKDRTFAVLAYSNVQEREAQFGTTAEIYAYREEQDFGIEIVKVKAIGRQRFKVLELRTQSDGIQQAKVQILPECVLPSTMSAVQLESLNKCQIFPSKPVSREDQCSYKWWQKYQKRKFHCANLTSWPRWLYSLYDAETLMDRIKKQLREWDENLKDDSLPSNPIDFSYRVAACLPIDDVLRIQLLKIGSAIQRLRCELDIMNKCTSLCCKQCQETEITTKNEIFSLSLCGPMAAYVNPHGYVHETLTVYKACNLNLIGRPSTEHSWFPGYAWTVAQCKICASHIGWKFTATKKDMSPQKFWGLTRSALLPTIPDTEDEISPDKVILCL

[3] = Inhibition of cell proliferation in human HBL1 cells harboring Ibrutinib-resistant BTK C481S mutant assessed as cell growth inhibition; assay type: functional
[4] = molecular target: T1, Tyrosine-protein kinase BTK (Homo sapiens, UniProt Q06187); assay: Inhibition of BTK (unknown origin)
T1 sequence (Q06187 whole entry): as the sequence (Q06187 whole entry) above

[5] = molecular target: T1, Tyrosine-protein kinase BTK; assay: Inhibition of wild-type BTK (unknown origin)
[6] = molecular target: T2, Tyrosine-protein kinase BTK (Homo sapiens, UniProt Q06187, C481S); assay: Inhibition of BTK C481S mutant (unknown origin)
T2 sequence (Q06187 2-659 C481S limits assumed): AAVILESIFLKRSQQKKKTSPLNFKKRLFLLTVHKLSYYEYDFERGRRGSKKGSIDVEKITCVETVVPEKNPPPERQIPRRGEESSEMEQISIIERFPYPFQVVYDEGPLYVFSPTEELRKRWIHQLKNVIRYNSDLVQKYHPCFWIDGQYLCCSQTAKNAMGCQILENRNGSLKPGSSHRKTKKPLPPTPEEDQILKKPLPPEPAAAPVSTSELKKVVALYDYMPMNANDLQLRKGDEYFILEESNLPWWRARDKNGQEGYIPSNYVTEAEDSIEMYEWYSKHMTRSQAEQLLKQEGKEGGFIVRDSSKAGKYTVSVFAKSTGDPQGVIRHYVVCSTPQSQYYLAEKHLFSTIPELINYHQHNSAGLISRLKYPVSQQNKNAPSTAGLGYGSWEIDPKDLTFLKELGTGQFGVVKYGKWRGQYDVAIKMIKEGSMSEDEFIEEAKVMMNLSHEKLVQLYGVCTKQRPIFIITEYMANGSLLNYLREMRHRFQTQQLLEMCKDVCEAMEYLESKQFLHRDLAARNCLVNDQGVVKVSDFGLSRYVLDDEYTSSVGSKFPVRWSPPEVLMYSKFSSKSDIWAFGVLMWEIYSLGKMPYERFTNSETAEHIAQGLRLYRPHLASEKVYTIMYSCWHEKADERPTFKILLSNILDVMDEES

[7] = molecular target: von Hippel-Lindau disease tumor suppressor/Tyrosine-protein kinase BTK (Homo sapiens, UniProt Q06187+P40337); assay: PROTAC activity at VHL/BTK (unknown origin) assessed as induction of BTK degradation; assay type: protein assay
Sequence of von Hippel-Lindau disease tumor suppressor/Tyrosine-protein kinase BTK (Q06187 whole entry): as the sequence (Q06187 whole entry) above
Sequence of von Hippel-Lindau disease tumor suppressor/Tyrosine-protein kinase BTK (P40337 whole entry): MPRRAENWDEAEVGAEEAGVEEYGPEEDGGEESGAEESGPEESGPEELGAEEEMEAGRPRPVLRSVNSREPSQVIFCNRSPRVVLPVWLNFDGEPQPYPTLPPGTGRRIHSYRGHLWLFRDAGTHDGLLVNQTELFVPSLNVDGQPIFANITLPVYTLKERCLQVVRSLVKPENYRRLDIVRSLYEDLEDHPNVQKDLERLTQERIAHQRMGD

[8] = molecular target: T1, Tyrosine-protein kinase BTK; assay: Induction of degradation of BTK in human Ramos cells at 10 nM relative to control; assay type: cell-based
[9] = molecular target: T1, Tyrosine-protein kinase BTK; assay: Induction of degradation of BTK in human Ramos cells at 100 nM relative to control; assay type: cell-based
[10] = molecular target: T2, Tyrosine-protein kinase BTK; assay: Induction of degradation of Ibrutinib-resistant BTK C481S mutant (unknown origin)
[11] = Intrinsic clearance in mouse; assay type: ADME, organism-based; settings: in vivo

IC50 [1]: 0.1 nM
SMILES: Nc1nccn2c([C@@H]3CC[C@H]4CN(CCO)CC(=O)N4C3)nc(-c3ccc(C(=O)Nc4cc(C(F)(F)F)ccn4)cc3)c12

DC50 [2]: 29 nM
SMILES: Nc1ncnc2c1c(-c1ccc(Oc3ccccc3)cc1)nn2[C@@H]1CCCN(Cc2cn(CCOCCOCCOCCNc3cccc4c3CN(C3CCC(=O)NC3=O)C4=O)nn2)C1 (stereo partly drawn)
GI50 [3]: 30 nM

IC50 [4]: 0.3 nM
SMILES: Cc1cc(C(N)=O)c2[nH]c3cc(C(C)(C)O)ccc3c2c1-c1cccc(-n2c(=O)[nH]c3c(F)cccc3c2=O)c1O

IC50 [5]: 0.85 nM
IC50 [6]: 0.39 nM
SMILES: O=C(c1ccc(Oc2ccccc2)cc1Cl)c1c[nH]c2ncnc(N[C@H]3CCC[C@H](CO)O3)c12

DC50 [7]: 7.9 nM
SMILES: Nc1ncnc2c1c(-c1ccc(Oc3ccccc3)cc1)nn2C1CCN(CCOCCOCCOc2ccc3c(c2)CN(C2CCC(=O)NC2=O)C3=O)CC1 (stereo not drawn)

Activity [8]: 73%
Activity [9]: 89%
DC50 [2]: 6.3 nM
SMILES: Nc1ncnc2c1c(-c1ccc(Oc3ccccc3)cc1)nn2[C@@H]1CCCN(C(=O)c2cn(CCOCCOCCOCCNc3cccc4c3C(=O)N(C3CCC(=O)NC3=O)C4=O)nn2)C1 (stereo partly drawn)
GI50 [3]: 28 nM

DC50 [10]: 30 nM
SMILES: COc1cc(Nc2c(C#N)cnc3cc(OCCCN4CCN(CCOCCOCCNc5cccc6c5C(=O)N(C5CCC(=O)NC5=O)C6=O)CC4)c(OC)cc23)c(Cl)cc1Cl (stereo not drawn)

CLint scaled [11]: 99.7 L/h/kg
SMILES: Nc1ncnc2c1c(-c1ccc(Oc3ccccc3)cc1)nn2C1CCN(CCOCCOCC(=O)Nc2ccc3c(c2)C(=O)N(C2CCC(=O)NC2=O)C3=O)CC1 (stereo not drawn)
